Experimental data: ChEMBL document CHEMBL1201862, “PubChem BioAssay data set” (2004)
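Compound exposure: 48 hours, 5 concentrations, 96-well plates. At the GI50, growth is halved.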 Active and inactive are the calls of the source. No stated cut-off is given here; in the data, active = GI50 up to about 1.1 µM and inactive = higher.

Experiments:
Test in all cases: NCI tumour cell line growth inhibition, 48 h
[1] = system: 786-0
[2] = system: A498
[3] = system: A549
[4] = system: ACHN
[5] = system: BT-549
[6] = system: CAKI-1
[7] = system: CCRF-CEM
[8] = system: COLO 205
[9] = system: DU-145
[10] = system: EKVX
[11] = system: HCC 2998
[12] = system: HCT-116
[13] = system: HCT-15
[14] = system: HL-60
[15] = system: HOP-62
[16] = system: HOP-92
[17] = system: HT-29
[18] = system: Hs-578T
[19] = system: IGROV-1
[20] = system: K562
[21] = system: KM12
[22] = system: LOX IMVI
[23] = system: M14
[24] = system: MCF7
[25] = system: MDA-MB-231
[26] = system: MDA-MB-435
[27] = system: MDA-N
[28] = system: MOLT-4
[29] = system: Malme-3M
[30] = system: NCI-H226
[31] = system: NCI-H23
[32] = system: NCI-H460
[33] = system: NCI-H522
[34] = system: NCI/ADR-RES
[35] = system: OVCAR-3
[36] = system: OVCAR-4
[37] = system: OVCAR-5
[38] = system: OVCAR-8
[39] = system: PC-3
[40] = system: RPMI-8226
[41] = system: RXF 393
[42] = system: SF-268
[43] = system: SF-295
[44] = system: SF-539
[45] = system: SK-MEL-28
[46] = system: SK-MEL-2
[47] = system: SK-MEL-5
[48] = system: SK-OV-3
[49] = system: SN12C
[50] = system: SNB-19
[51] = system: SNB-75
[52] = system: SR
[53] = system: SW-620
[54] = system: T47D
[55] = system: TK-10
[56] = system: U-251
[57] = system: UACC-257
[58] = system: UACC-62
[59] = system: UO-31

**Q.** What does the source list for `CC1(C)C=C(S(=O)(=O)c2ccccc2)Oc2ccccc2O1`?
**A.** GI50 [1]: 44.6 µM (inactive); GI50 [2]: 30.8 µM (inactive); GI50 [3]: 41 µM (inactive); GI50 [4]: 34.8 µM (inactive); GI50 [5]: 42.7 µM (inactive); GI50 [6]: 69.2 µM (inactive); GI50 [7]: 40.1 µM (inactive); GI50 [8]: 18.8 µM (inactive); GI50 [9]: 91 µM (inactive); GI50 [10]: 23.1 µM (inactive); GI50 [11]: 15.7 µM (inactive); GI50 [12]: 29.5 µM (inactive); GI50 [13]: 33.3 µM; GI50 [14]: 20.5 µM (inactive); GI50 [15]: > 100 µM (inactive); GI50 [16]: 24.5 µM (inactive); GI50 [17]: 39.6 µM (inactive); GI50 [18]: 64.9 µM (inactive); GI50 [19]: 44.2 µM (inactive); GI50 [20]: 29.8 µM (inactive); GI50 [21]: 43.6 µM (inactive); GI50 [22]: 16.3 µM (inactive); GI50 [23]: 46 µM (inactive); GI50 [24]: 43.5 µM (inactive); GI50 [25]: > 100 µM (inactive); GI50 [26]: 20.5 µM (inactive); GI50 [27]: 35.7 µM (inactive); GI50 [28]: 25.2 µM (inactive); GI50 [29]: 26.2 µM (inactive); GI50 [30]: 46.6 µM (inactive); GI50 [31]: 41.3 µM (inactive); GI50 [32]: 35.2 µM (inactive); GI50 [33]: 40.9 µM (inactive); GI50 [34]: 52.1 µM (inactive); GI50 [35]: 50.4 µM (inactive); GI50 [36]: 37.4 µM (inactive); GI50 [37]: > 100 µM (inactive); GI50 [38]: 32.1 µM (inactive); GI50 [39]: 27.9 µM (inactive); GI50 [40]: 32.9 µM (inactive); GI50 [41]: 34.8 µM (inactive); GI50 [42]: 61.1 µM (inactive); GI50 [43]: 33 µM (inactive); GI50 [44]: 82.8 µM (inactive); GI50 [45]: 41.7 µM (inactive); GI50 [46]: 52.4 µM (inactive); GI50 [47]: 15.4 µM (inactive); GI50 [48]: 60.3 µM (inactive); GI50 [49]: 64.9 µM (inactive); GI50 [50]: 62.5 µM (inactive); GI50 [51]: 16.7 µM (inactive); GI50 [52]: 41.9 µM (inactive); GI50 [53]: 75.9 µM (inactive); GI50 [54]: 19.8 µM (inactive); GI50 [55]: 6.7 µM (inactive); GI50 [56]: 45.4 µM (inactive); GI50 [57]: 38 µM (inactive); GI50 [58]: 38.4 µM (inactive); GI50 [59]: 20.7 µM (inactive)
